Measurements: patent US20090137538A1, “METHOD OF TREATING ATROPHIC VAGINITIS” (priority 2006, published 2009)
Where two headings read alike, the source gives them in different places.

Assays:
[1] = relative risk ratio vs placebo, cited from earlier work
[2] = system: women with recurrent urinary tract infections; settings: cited from earlier work
[3] = system: endometrium; settings: oral 2 mg per day, average three weeks prior to hysterectomy; cited from earlier work
[4] = system: SIV; settings: vaginal transmission; base cream alone 75%; cited from earlier work
[5] = molecular target: T1, sex hormone-binding globulin (SHBG) (Homo sapiens, UniProt P04278); settings: unlike estradiol and estrone; cited from earlier work
T1 sequence (P04278 30-402): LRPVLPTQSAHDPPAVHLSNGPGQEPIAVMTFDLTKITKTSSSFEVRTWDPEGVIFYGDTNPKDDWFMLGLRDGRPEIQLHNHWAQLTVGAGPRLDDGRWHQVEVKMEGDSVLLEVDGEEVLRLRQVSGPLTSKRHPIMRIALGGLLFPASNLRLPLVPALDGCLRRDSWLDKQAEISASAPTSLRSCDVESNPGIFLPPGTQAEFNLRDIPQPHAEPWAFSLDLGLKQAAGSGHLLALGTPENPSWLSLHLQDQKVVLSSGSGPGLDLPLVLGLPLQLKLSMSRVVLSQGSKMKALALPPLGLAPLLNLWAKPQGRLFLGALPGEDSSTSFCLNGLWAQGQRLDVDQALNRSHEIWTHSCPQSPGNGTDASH

[6] = system: menopausal women; settings: cited from earlier work
[7] = system: lactobacilli; settings: cited from earlier work
[8] = system: urinary urgency, urge incontinence, nocturia; settings: vaginal therapy; cited from earlier work
[9] = system: endometrium; experiment: Example 6: endometrial biopsy at 6 months; type: in vivo, human; settings: vaginal dose of 30 mg in the combination suppository, biopsy after 6 months
Description: Five patients underwent an endometrial biopsy (EMB) after 6 months of treatment.

[10] = cited from earlier work
[11] = cited from earlier work; remark: listed apart in the source
[12] = vaginal ring, after vaginal administration; cited from earlier work
[13] = cited from earlier work; remark: listed apart in the source
[14] = dose of 0.5 mg, menopausal patients

NC(=O)C(c1ccccc1)(c1ccccc1)[C@@H]1CCN(CCc2ccc3c(c2)CCO3)C1 [Darifenacin]
Any AE* ([1]; dose 7.5 mg): 1.2 | Constipation ([1]; dose 7.5 mg): 2.2 | Dry Mouth ([1]; dose 7.5 mg): 2.2 | Any AE* ([1]; dose 15 mg): 1.4 | Constipation ([1]; dose 15 mg): 2.4 | Dry Mouth ([1]; dose 15 mg): 2.9

CCN(CC)CC#CCOC(=O)C(O)(c1ccccc1)C1CCCCC1 (stereo not drawn) [Oxybutynin IR, Oxybutynin]
Any AE* ([1]; dose 8.8-15 mg): 1.4 | Blurred Vision ([1]; dose 8.8-15 mg): 1.7 | Dry Mouth ([1]; dose 8.8-15 mg): 3.3 | Dyspepsia ([1]; dose 8.8-15 mg): 3.3 | Urinary Retention* ([1]; dose 8.8-15 mg): 5.6

C[C@]12CC[C@@H]3c4ccc(O)cc4CC[C@H]3[C@@H]1C[C@@H](O)[C@@H]2O [Estriol, 16-alpha, 17-beta, estra 1,3,5 (10) triene 3, 16, 17-triol]
reduction of the requirement for antibiotics compared to those unsupplemented [2]: up to 16 times | women with hyperplastic changes on histological exam of the uteri [3]: 70.8% | SIV infection rate [4]: 8.3% | binding to sex hormone-binding globulin [5]: does not bind | reduction of the vaginal pH [6, 14]: failed to reduce | vaginal pH after therapy ([6]; menopausal women, ovules 1 mg, 24 weeks): 4.12 | patients in whom lactobacilli reappeared ([7]; after one month, no patients receiving placebo): 61% | restoration of the population of lactobacilli [7, 14]: failed to restore | alleviating nocturia [8]: 54% | alleviating urge incontinence [8]: 58% | alleviating urinary urgency [8]: 56%

CC(=O)[C@H]1CC[C@H]2[C@@H]3CCC4=CC(=O)CC[C@]4(C)[C@H]3CC[C@]12C [Progesterone, pregn-4-ene-3, 20-dione]
effect on estrogen stimulated postmenopausal endometrium [9]: anti-proliferative effect | serum concentration ([10]; 25 mg vaginal suppository): 7.27 ng/mL | serum concentration ([10]; 50 mg vaginal suppository): 8.84 ng/mL | Quality of life/menopausal symptoms ([11]; MP-containing HRT compared with MPA-containing regimen): containing HRT experienced significant improvement in symptoms | Cardiovascular Events ([11]; in vivo): MP: has antihypertensive action and can be safely used to treat | Lipid Profile ([11]; in vivo): MP: does not negate the beneficial effects of estrogen and modestly | Liver function ([11]; in vivo): MP: does not effect liver enzymes or cause liver related side | Sleep and Mood ([11]; in vivo): MP: improves the quality of sleep and has sedative properties.

O=C(O[C@H]1C[C@H]2CC[C@@H](C1)[N+]21CCCC1)C(O)(c1ccccc1)c1ccccc1 [Trospium]
Any AE* ([1]; dose 40 mg): 1.5 | Constipation ([1]; dose 40 mg): 2.1 | Dry Mouth ([1]; dose 40 mg): 3.2

CC(=O)O[C@]1(C(C)=O)CC[C@H]2[C@@H]3C[C@H](C)C4=CC(=O)CC[C@]4(C)[C@H]3CC[C@@]21C [MPA, Medroxyprogesterone Acetate]
Lipid Profile ([11]; in vivo): MPA: adversely effects lipid profile and negates the beneficial | Liver function ([11]; in vivo): MPA: contraindicated in patients with liver dysfunction. | Sleep and Mood ([11]; in vivo): MPA: can cause insomnia, mental depression, and anxiety.

C#C[C@]1(O)CC[C@H]2[C@@H]3CCc4cc(O)ccc4[C@H]3CC[C@@]21C [ethinylestradiol]
bioavailability [12]: approximately 55.6%

C[C@]12CC[C@@H]3c4ccc(O)cc4CC[C@H]3[C@@H]1CC[C@@H]2O [estradiol]
serum estradiol levels after vaginal versus oral administration ([13]; same dose): ten-fold higher | endometrial concentrations after vaginal versus oral administration ([13]; same exact dose): seventy-fold higher
